Laboratory results from patent US12577201B2, “Glutamine analogs” (Jacobio Pharmaceuticals Co., Ltd., priority 2020, dated 2026).

Legend:
[1] = Plasma stability, swine plasma; settings: 1 μM, 37° C., 4 hours
Protocol: (§1) For metabolic stability, plasma from dog, monkey, swine and human were used. For stability, prodrugs (1 μM) were spiked in respective solutions and incubated in an orbital shaker at 37° C. 50 μL aliquots of the mixture in duplicate were removed, and the reaction quenched by addition of four times the volume of ice cold acetonitrile spiked with the internal standard (Dexamethasone 100 ng/mL). […] 100 μL of the supernatant was diluted with 100 μL of water and transferred to the 0.6 mL plastic tubes on 96-well plate. Prodrug disappearance was monitored over time using a liquid chromatography and tandem mass spectrometry (LC-MS/MS).
(§2) For LC-MS/MS, prodrugs were analyzed on a ExionLC AD HPLC system coupled to REF Triple Quad 5500+ mass spectrometer with an ESI interface on an Phenomenex Kinetex 5 m C18 100A (2.1*50) mm UPLC column. The autosampler was temperature controlled and was operated at 4° C. The mobile phase used for the chromatographic separation was composed of acetonitrile/water containing 0.10% formic acid and will run at a flow rate of 0.6 mL/min for 3.5 min using gradient elution. The column effluent was monitored using […], equipped with an electrospray probe set in the positive ionization mode. Samples were introduced into the ionization source through a heated nebulized probe (400° C.). Disappearance of prodrugs will be measured from ratio of peak areas of analyte to IS.
(§3) For quantification of compound remaining, disappearance of prodrugs was measured from ratio of peak areas of analyte to IS.

[2] = Plasma stability, human plasma; settings: 1 μM, 37° C., 4 hours
Protocol: as §1, §2, §3

[3] = Stability in liver microsomes, rat; format: in vitro ADME; settings: 60 minutes, read-out: In vitro Clint
Protocol: (§4) For metabolic stability, microsomes from human, monkey, dog, rat and mouse were used. For stability, prodrugs (1 μM) were spiked in each microsomes matrix and incubated in an orbital shaker at 37° C. Aliquots of 50 μL were taken from the reaction solution at 0, 15, 30, 45 and 60 min. The reaction was stopped by the addition of 4 volumes of cold acetonitrile with IS (100 nM alprazolam, 200 nM labetalol, 200 nM caffeine and 2 μM ketoprofen). Samples were centrifuged at 3, 220 g for 40 minutes. Aliquot of 100 μL of the supernatant was mixed with 100 μL of ultra-pure H2O and then used for LC-MS/MS analysis.
(§5) For LC-MS/MS, prodrugs were analyzed on an API 4000 instrument from AB Inc (Canada) with an ESI interface coupled to Shimadzu LC system on an Waters XSelect HSS T3 C18, 2.5 m, 2.1×30 mm column.
(§6) For data analysis, peak areas were determined from extracted ion chromatograms. The slope value, k, was determined by linear regression of the natural logarithm of the remaining percentage of the parent drug vs. incubation time curve. The in vitro half-life (in vitro t1/2) was determined from the slope value: in vitro t1/2=−(0.693/k)
(§7) Conversion of the in vitro t1/2 (min) into the in vitro intrinsic clearance (in vitro CLint, in μL/min/mg protein) was done using the following equation (mean of duplicate determinations): […]

[4] = Plasma stability, dog plasma; format: in vitro ADME; settings: 1 μM, 37° C., 4 hours
Protocol: For metabolic stability, plasma from dog, monkey, swine and human were used. For stability, prodrugs (1 μM) were spiked in respective solutions and incubated in an orbital shaker at 37° C. 50 μL aliquots of the mixture in duplicate were removed, and the reaction quenched by addition of four times the volume of ice cold acetonitrile spiked with the internal standard (Dexamethasone 100 ng/mL). The samples were vortexed for 30 s and centrifuged at 15000 g for 5 min. 100 μL of the supernatant was diluted with 100 μL of water and transferred to the 0.6 mL plastic tubes on 96-well plate. Prodrug disappearance was monitored over time using a liquid chromatography and tandem mass spectrometry (LC-MS/MS).
as §2, §3

[5] = Stability in liver microsomes, dog; format: in vitro ADME; settings: 60 minutes, read-out: In vitro Clint
Protocol: as §4, §5, §6, §7

[6] = Body weight of CES1c -/- mice bearing MC38 tumors (Example 10); format: in vivo; settings: CES1c -/- mouse, MC38, 2 μmol/kg S.C. QD; for BW Change (%): D6 to D26
Protocol: The treatments were started when the mean tumor size reached 52-132 mm^3 (average tumor size 95 mm^3). Each group contained 5 tumor bearing mice. Group 1 was treated with Vehicle (10% DMSO+90% Saline), S.C., QD(Subcutaneous injection, quaque die). Group 2 was given treatments with reference compound A at 2 μmol/kg, S.C., QD. Group 3 was given treatments with compound 2 at 2 μmol/kg, S.C., QD.
(§8) In vivo efficacy was examined according to absolute tumor growth inhibition (TGI) and the safety was evaluated according to weight change and survival in mice.

[7] = Stability in liver microsomes, monkey; format: in vitro ADME; settings: 60 minutes, read-out: In vitro Clint
Protocol: as §4, §5, §6, §7

MC38 tumor cells = test: Anti-tumor efficacy in MC38 syngeneics in C57BL/6 mouse (Example 9); format: in vivo; settings: C57BL/6, MC38, 2 μmol/kg S.C. QD; for T/C (%) / TGI (%) / TV (mm^3) (Mean ± SEM) D21 / TV (mm^3) at D21 (Mean ± SEM): D21; for TV (mm^3) at D21 (Mean ± SEM): Table 5
Protocol: Animal species: Mus musculus; Strain: C57BL/6; Age: 6-8 weeks; Sex: female.
The MC38 tumor cells were maintained in vitro in DMEM medium supplemented with 10% FBS at 37° C., 5% CO2. The cells growing in an exponential growth phase were harvested and counted for tumor inoculation. The culture MC38 were harvested, re-suspended in PBS containing 50% Matrigel at a density of 1×10^7 cells/mL. Each mouse was inoculated subcutaneously in the right flank region with 1×10^6 cells in 0.1 mL of PBS containing 50% Matrigel for tumor development.
The treatments were started when the mean tumor size reached 79-118 mm^3 (average tumor size 96 mm^3). Each group contained 8 tumor bearing mice. Group 1 was treated with Vehicle (10% DMSO+90% Saline), S.C., QD.
as §8
Statistical analysis of difference in tumor volume among the groups was performed using one-way ANOVA followed by individual comparisons using Games-Howell post-hoc test (equal variance not assumed). All data was analyzed using SPSS 22.0 software.

[8] = Plasma stability, monkey plasma; settings: 1 μM, 37° C., 4 hours
Protocol: as §1, §2, §3

[9] = Stability in liver microsomes, mouse; format: in vitro ADME; settings: 60 minutes, read-out: In vitro Clint
Protocol: as §4, §5, §6, §7

[10] = Stability in liver microsomes, human; format: in vitro ADME; settings: 60 minutes, read-out: In vitro Clint
Protocol: as §4, §5, §6, §7

| SMILES | plasma stability (compound remaining) [1] | plasma stability (compound remaining) [2] | microsomal CLint at 1 μM [3] [µL/min/mg] | plasma stability (compound remaining) [4] | microsomal CLint at 1 μM [5] [µL/min/mg] | tolerability / body weight loss [6] | BW(g) (Mean ± SEM) Beginning (D6) [6] | BW Change (%) [6] | BW(g) (Mean ± SEM) End (D26) [6] | microsomal CLint at 1 μM [7] [µL/min/mg] | TV (mm^3) (Mean ± SEM) D6 (MC38 tumor cells) | TV (mm^3) (Mean ± SEM) D10 (MC38 tumor cells) | TV (mm^3) (Mean ± SEM) D14 (MC38 tumor cells) | TV (mm^3) (Mean ± SEM) D18 (MC38 tumor cells) | T/C (%) (MC38 tumor cells) | TGI (%) (MC38 tumor cells) | TV (mm^3) (Mean ± SEM) D21 (MC38 tumor cells) | TV (mm^3) (Mean ± SEM) D25 (MC38 tumor cells) | TV (mm^3) (Mean ± SEM) D28 (MC38 tumor cells) | TV (mm^3) (Mean ± SEM) D31 (MC38 tumor cells) | also measured |
| --- | --- | --- | --- | --- | --- | --- | --- | --- | --- | --- | --- | --- | --- | --- | --- | --- | --- | --- | --- | --- | --- |
| CC(=O)N[C@@H](Cc1c[nH]c2ccccc12)C(=O)N[C@@H](CCC(=O)C=[N+]=[N-])C(=O)OC(C)C [Reference compound A, reference compound] | substantially intact | substantially intact | 95.2 | substantially intact | 60.4 | some body weight loss | 19.2 ± 0.2 | −8.3% | 17.6 ± 0.9 | 393 | 96 ± 4 | 148 ± 6 | 196 ± 25 | 297 ± 48 | 14.4 | 85.6 | 399 ± 74 | 680 ± 143 | 928 ± 153 | 1358 ± 213 | TV (mm^3) at D21 (Mean ± SEM) (MC38 tumor cells): 399 ± 74 mm^3; plasma stability (compound remaining) [8]: substantially intact; microsomal CLint at 1 μM [9]: 153 µL/min/mg; microsomal CLint at 1 μM [10]: 119 µL/min/mg |
| CO[C@@H](C)C(=O)N[C@@H](CCC(=O)C=[N+]=[N-])C(=O)OC(C)C [Compound 2, isopropyl (S)-6-diazo-2-((S)-2-methoxypropanamido)-5-oxohexanoate] | substantially intact | substantially intact | 62.4 | substantially intact | 12.7 | well-tolerated | 19.1 ± 0.3 | +2.4% | 19.5 ± 0.3 | 31.8 | 96 ± 4 | 141 ± 9 | 140 ± 10 | 180 ± 13 | 9.5 | 90.5 | 263 ± 32 | 381 ± 55 | 496 ± 62 | 617 ± 56 | TV (mm^3) at D21 (Mean ± SEM) (MC38 tumor cells): 263 ± 32 mm^3; plasma stability (compound remaining) [8]: substantially intact; microsomal CLint at 1 μM [9]: 67.1 µL/min/mg; microsomal CLint at 1 μM [10]: 43.4 µL/min/mg |
